The target of test [1] is T1, Trypsin-3 (Homo sapiens, UniProt P35030).
T1 sequence (P35030 whole entry): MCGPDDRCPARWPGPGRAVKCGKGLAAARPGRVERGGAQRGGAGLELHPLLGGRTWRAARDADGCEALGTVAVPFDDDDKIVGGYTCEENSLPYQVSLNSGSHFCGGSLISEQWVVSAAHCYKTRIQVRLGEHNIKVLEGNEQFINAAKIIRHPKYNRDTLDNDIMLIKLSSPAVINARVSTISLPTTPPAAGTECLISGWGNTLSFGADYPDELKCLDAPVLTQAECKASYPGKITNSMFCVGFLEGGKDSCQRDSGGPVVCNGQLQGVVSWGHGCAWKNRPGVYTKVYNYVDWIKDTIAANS
The test is described as follows: Competitive inhibition of recombinant human mesotrypsin using Z-GPR-MCA as substrate measured every 30 secs for 10 mins.

The target of test [2] is T2, Trypsin-3 (Homo sapiens) (UniProt P35030).
T2 sequence (whole entry): T1 sequence (P35030 whole entry)
The test is described as follows: Potency index, ratio of SFTI-1 Ki to test compound Ki for recombinant human mesotrypsin.

Test [3] concerns the target T3, Serine protease 1 (Homo sapiens, UniProt P07477). The test is described as follows: Inhibition of human cationic trypsin using Boc-VPR-MCA as substrate measured every 30 secs for 10 mins.
Test [4] addresses T3, Serine protease 1. The test is described as follows: Potency index, ratio of SFTI-1 Ki to test compound Ki for human cationic trypsin.
Test [5] deals with T4, Serine protease 1 (Bos taurus, UniProt P00760).
T4 sequence (P00760 whole entry): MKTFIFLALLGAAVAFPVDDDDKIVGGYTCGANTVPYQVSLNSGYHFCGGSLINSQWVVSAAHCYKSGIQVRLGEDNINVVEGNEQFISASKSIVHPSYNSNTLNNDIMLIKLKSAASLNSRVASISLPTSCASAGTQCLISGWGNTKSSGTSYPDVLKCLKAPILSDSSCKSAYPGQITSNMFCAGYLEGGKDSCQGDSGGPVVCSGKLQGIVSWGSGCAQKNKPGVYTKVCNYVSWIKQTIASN
The test is described as follows: Inhibition of bovine beta-trypsin using Boc-QAR-MCA as substrate measured every 30 secs for 10 mins.

Test [6] deals with T5, Serine protease 1 (Bos taurus) (UniProt P00760).
T5 sequence (whole entry): T4 sequence (P00760 whole entry)
The test is described as follows: Potency index, ratio of SFTI-1 Ki to test compound Ki for bovine beta-trypsin.

The target of test [7] is T6, Suppressor of tumorigenicity 14 protein (Homo sapiens) (UniProt Q9Y5Y6).
T6 sequence (whole entry): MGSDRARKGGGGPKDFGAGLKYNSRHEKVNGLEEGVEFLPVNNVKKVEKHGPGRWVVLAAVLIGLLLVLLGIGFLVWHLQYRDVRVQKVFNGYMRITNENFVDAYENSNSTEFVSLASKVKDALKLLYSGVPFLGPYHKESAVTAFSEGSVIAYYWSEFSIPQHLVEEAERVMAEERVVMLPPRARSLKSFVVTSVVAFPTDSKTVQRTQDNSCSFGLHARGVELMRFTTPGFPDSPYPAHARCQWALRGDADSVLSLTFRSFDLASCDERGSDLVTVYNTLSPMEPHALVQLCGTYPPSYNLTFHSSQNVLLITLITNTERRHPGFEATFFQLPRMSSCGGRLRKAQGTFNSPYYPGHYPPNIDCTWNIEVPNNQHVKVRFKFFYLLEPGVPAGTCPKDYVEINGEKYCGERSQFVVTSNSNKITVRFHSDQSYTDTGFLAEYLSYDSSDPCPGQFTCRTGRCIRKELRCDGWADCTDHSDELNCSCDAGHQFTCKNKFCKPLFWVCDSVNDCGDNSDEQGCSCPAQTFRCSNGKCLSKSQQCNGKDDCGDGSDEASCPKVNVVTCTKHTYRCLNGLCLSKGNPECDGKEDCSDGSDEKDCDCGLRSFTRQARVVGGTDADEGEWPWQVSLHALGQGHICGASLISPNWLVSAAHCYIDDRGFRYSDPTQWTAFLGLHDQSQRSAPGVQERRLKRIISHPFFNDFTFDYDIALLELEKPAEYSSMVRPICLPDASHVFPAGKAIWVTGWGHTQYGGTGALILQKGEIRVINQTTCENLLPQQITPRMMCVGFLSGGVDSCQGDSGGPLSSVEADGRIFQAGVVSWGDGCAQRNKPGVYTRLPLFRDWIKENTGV
The test is described as follows: Inhibition of recombinant human matriptase at 50 uM using Boc-QAR-MCA as substrate measured every 30 secs for 10 mins relative to control.

In test [8] the target is T7, Prothrombin (Homo sapiens, UniProt P00734). The test is described as follows: Inhibition of human alpha thrombin at 50 uM using Boc-VPR-MCA as substrate measured every 30 secs for 10 mins relative to control.
Test [9] addresses Chymotrypsinogen A (Bos taurus) (UniProt P00766). The test is described as follows: Inhibition of bovine alpha-chymotrypsin at 50 uM using Suc-AAPF-MCA as substrate measured every 30 secs for 10 mins relative to control.
In test [10] the target is T8, Suppressor of tumorigenicity 14 protein (Homo sapiens, UniProt Q9Y5Y6).
T8 sequence (Q9Y5Y6 whole entry): T6 sequence (whole entry)
The test is described as follows: Inhibition of recombinant human matriptase using Boc-QAR-MCA as substrate measured every 30 secs for 10 mins.

Test [11] addresses T7, Prothrombin. The test is described as follows: Inhibition of human alpha thrombin using Boc-VPR-MCA as substrate measured every 30 secs for 10 mins.
Test [12] deals with Chymotrypsinogen A (Bos taurus, UniProt P00766). The test is described as follows: Inhibition of bovine alpha-chymotrypsin using Suc-AAPF-MCA as substrate measured every 30 secs for 10 mins.

Where a SMILES comes first, the peptide text is derived from it. Bridges are numbered along the chain shown (N, C = ends). [ ]: non-standard residue; d: D form. Bip = N[C@@H](Cc1ccc(-c2ccccc2)cc1)C(=O)O; 2Nal = N[C@@H](Cc1ccc2ccccc2c1)C(=O)O

T3 sequence (P07477 whole entry): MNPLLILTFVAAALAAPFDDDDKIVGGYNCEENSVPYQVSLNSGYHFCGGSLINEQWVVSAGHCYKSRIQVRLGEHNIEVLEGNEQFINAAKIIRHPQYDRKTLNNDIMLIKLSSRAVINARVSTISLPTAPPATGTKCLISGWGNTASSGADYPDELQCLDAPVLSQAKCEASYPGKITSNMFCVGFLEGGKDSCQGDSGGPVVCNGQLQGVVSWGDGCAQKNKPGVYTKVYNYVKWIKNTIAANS

With `CC[C@H](C)[C@@H]1NC(=O)[C@@H]2CCCN2C(=O)[C@@H]2CCCN2C(=O)[C@H](Cc2ccc(-c3ccccc3)cc2)NC(=O)[C@H](CO)NC(=O)[C@H](CCCCN)NC(=O)[C@H]([C@@H](C)O)NC(=O)[C@@H]2CSSC[C@H](NC1=O)C(=O)N[C@@H](Cc1ccccc1)C(=O)N1CCC[C@H]1C(=O)N[C@@H](CC(=O)O)C(=O)NCC(=O)N[C@@H](CCCNC(=N)N)C(=O)N2` (cyclo([Bip]PPICFPDGRCTKS); disulfide 5-11), the Ki in test [1] came out at 35 nM; in test [3] it was 0.76 nM; in test [5], 0.062 nM. Moreover, the figures for the Ratio Ki in test [2], in test [4] and in test [6] were 142, 25 and 8, respectively.
For the compound `CC[C@H](C)[C@@H]1NC(=O)[C@@H]2CCCN2C(=O)[C@@H]2CCCN2C(=O)[C@H](Cc2ccccc2)NC(=O)[C@H](CO)NC(=O)[C@H](CCCCN)NC(=O)[C@H]([C@@H](C)O)NC(=O)[C@@H]2CSSC[C@H](NC1=O)C(=O)N[C@@H](Cc1ccccc1)C(=O)N1CCC[C@H]1C(=O)N[C@@H](CC(=O)O)C(=O)NCC(=O)N[C@@H](CCCNC(=N)N)C(=O)N2` (cyclo(CFPDGRCTKSFPPI); disulfide 1-7), the Ki in test [1] was 45 nM. Moreover, in test [2], the Ratio Ki is 110.
For `CC[C@H](C)[C@@H]1NC(=O)[C@@H]2CCCN2C(=O)[C@@H]2CCCN2C(=O)CNC(=O)[C@H](CO)NC(=O)[C@H](CCCNC(=N)N)NC(=O)[C@H]([C@@H](C)O)NC(=O)[C@@H]2CSSC[C@H](NC1=O)C(=O)N[C@@H](Cc1ccccc1)C(=O)N1CCC[C@H]1C(=O)N[C@@H](CC(=O)O)C(=O)NCC(=O)N[C@@H](CCCNC(=N)N)C(=O)N2` (cyclo(CFPDGRCTRSGPPI); disulfide 1-7), the results for the Ki in test [1], in [3] and in test [5] were 369 nM, 100 nM and 196 nM, respectively. The Ratio Ki was 13 in [2], 3330 in test [4] and 24500 in [6].
As to `CC[C@H](C)[C@@H]1NC(=O)[C@@H]2CCCN2C(=O)[C@@H]2CCCN2C(=O)CNC(=O)[C@H](CO)NC(=O)[C@H](CCCCN)NC(=O)[C@H]([C@@H](C)O)NC(=O)[C@@H]2CSSC[C@H](NC1=O)C(=O)N[C@@H](Cc1ccccc1)C(=O)N1CCC[C@H]1C(=O)N[C@@H](CC(=O)O)C(=O)NCC(=O)N[C@@H](CCCNC(=N)N)C(=O)N2` (cyclo(CFPDGRCTKSGPPI); disulfide 1-7), the Ki in test [1] was determined as 134 nM; in test [3], 49 nM; in [5] it was 81 nM. Moreover, the values for the Ratio Ki in [2], in test [4] and in [6] were 37, 1630 and 10100, respectively. Besides, the inhibition in test [7], in [8] and in test [9] was below 50% each time. The half-inhibitory concentration (IC50) in test [10], in test [11] and in test [12] was above 50 µM throughout.
Consider `CC[C@H](C)[C@@H]1NC(=O)[C@@H]2CCCN2C(=O)[C@@H]2CCCN2C(=O)[C@H](Cc2ccc(-c3ccccc3)cc2)NC(=O)[C@H](CO)NC(=O)[C@H](CCCNC(=N)N)NC(=O)[C@H]([C@@H](C)O)NC(=O)[C@@H]2CSSC[C@H](NC1=O)C(=O)N[C@@H](Cc1ccccc1)C(=O)N1CCC[C@H]1C(=O)N[C@@H](CC(=O)O)C(=O)NCC(=O)N[C@@H](CCCNC(=N)N)C(=O)N2` (cyclo([Bip]PPICFPDGRCTRS); disulfide 5-11), for which the results for the Ki in test [1], in [3] and in test [5] were 28 nM, 1.9 nM and 0.17 nM, respectively. In addition, the Ratio Ki was determined as 177 in [2], 63 in test [4] and 21 in test [6].
Turning to `CC[C@H](C)[C@@H]1NC(=O)[C@@H]2CCCN2C(=O)[C@@H]2CCCN2C(=O)[C@H](Cc2ccc3ccccc3c2)NC(=O)[C@H](CO)NC(=O)[C@H](CCCNC(=N)N)NC(=O)[C@H]([C@@H](C)O)NC(=O)[C@@H]2CSSC[C@H](NC1=O)C(=O)N[C@@H](Cc1ccccc1)C(=O)N1CCC[C@H]1C(=O)N[C@@H](CC(=O)O)C(=O)NCC(=O)N[C@@H](CCCNC(=N)N)C(=O)N2` (cyclo([2Nal]PPICFPDGRCTRS); disulfide 5-11), the Ki in test [1] was found to be 38 nM; in [3], 2.6 nM; in test [5], 0.23 nM. In addition, the Ratio Ki came out at 131 in [2], 87 in test [4] and 29 in [6].
Consider `CC[C@H](C)[C@@H]1NC(=O)[C@@H]2CCCN2C(=O)[C@@H]2CCCN2C(=O)[C@H](CC(=O)O)NC(=O)[C@H](CO)NC(=O)[C@H](CCCCN)NC(=O)[C@H]([C@@H](C)O)NC(=O)[C@@H]2CSSC[C@H](NC1=O)C(=O)N[C@@H](Cc1ccccc1)C(=O)N1CCC[C@H]1C(=O)N[C@@H](CC(=O)O)C(=O)NCC(=O)N[C@@H](CCCNC(=N)N)C(=O)N2` (cyclo(CFPDGRCTKSDPPI); disulfide 1-7), for which the Ki in [1] worked out at 402 nM. Moreover, the Ratio Ki in test [2] was 12.
Take `CC[C@H](C)[C@@H]1NC(=O)[C@@H]2CCCN2C(=O)[C@@H]2CCCN2C(=O)[C@H](Cc2ccc3ccccc3c2)NC(=O)[C@H](CO)NC(=O)[C@H](CCCCN)NC(=O)[C@H]([C@@H](C)O)NC(=O)[C@@H]2CSSC[C@H](NC1=O)C(=O)N[C@@H](Cc1ccccc1)C(=O)N1CCC[C@H]1C(=O)N[C@@H](CC(=O)O)C(=O)NCC(=O)N[C@@H](CCCNC(=N)N)C(=O)N2` (cyclo([2Nal]PPICFPDGRCTKS); disulfide 5-11): the results for the Ki in test [1], in [3] and in test [5] were 26 nM, 0.87 nM and 0.046 nM, respectively. The Ratio Ki is 191 in test [2], 29 in test [4] and 6 in [6].
For `CC[C@H](C)[C@@H]1NC(=O)[C@@H]2CCCN2C(=O)[C@@H]2CCCN2C(=O)[C@H]([C@@H](C)CC)NC(=O)[C@H](CO)NC(=O)[C@H](CCCCN)NC(=O)[C@H]([C@@H](C)O)NC(=O)[C@@H]2CSSC[C@H](NC1=O)C(=O)N[C@@H](Cc1ccccc1)C(=O)N1CCC[C@H]1C(=O)N[C@@H](CC(=O)O)C(=O)NCC(=O)N[C@@H](CCCNC(=N)N)C(=O)N2`, in test [3], the Ki was 0.03 nM.
Regarding `CC[C@H](C)[C@@H]1NC(=O)[C@@H]2CCCN2C(=O)[C@@H]2CCCN2C(=O)[C@H](CO)NC(=O)[C@H](CO)NC(=O)[C@H](CCCCN)NC(=O)[C@H]([C@@H](C)O)NC(=O)[C@@H]2CSSC[C@H](NC1=O)C(=O)N[C@@H](Cc1ccccc1)C(=O)N1CCC[C@H]1C(=O)N[C@@H](CC(=O)O)C(=O)NCC(=O)N[C@@H](CCCNC(=N)N)C(=O)N2` (cyclo(CFPDGRCTKSSPPI); disulfide 1-7), the Ki in test [1] was found to be 335 nM. In addition, the Ratio Ki in test [2] stood at 15.

The values above are taken from ChEMBL document CHEMBL4152317, “Engineering potent mesotrypsin inhibitors based on the plant-derived cyclic peptide, sunflower trypsin inhibitor-1” (Eur J Med Chem, 2018).
